Assay results as given in ChEMBL document CHEMBL1201862, “PubChem BioAssay data set” (2004).
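These data come from cells grown in 96-well plates and exposed to compound for 48 hours at five concentrations. Abbreviation: GI50, concentration required for 50% inhibition of growth.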 Activity calls are given as the source filed them. Rule as the data show it: active = GI50 up to about 1.1 µM and inactive = higher.

Key:
Test in all cases: DTP human tumour cell line panel, 48 h
SK-OV-3 = test system: SK-OV-3
MOLT-4 = test system: MOLT-4
SF-268 = test system: SF-268
HL-60 = test system: HL-60
UO-31 = test system: UO-31
NCI-H23 = test system: NCI-H23
K562 = test system: K562
IGROV-1 = test system: IGROV-1
LOX IMVI = test system: LOX IMVI
CAKI-1 = test system: CAKI-1
RXF 393 = test system: RXF 393
SK-MEL-5 = test system: SK-MEL-5
SR = test system: SR
HCT-116 = test system: HCT-116
HCT-15 = test system: HCT-15
UACC-62 = test system: UACC-62

Row | Structure (SMILES) | GI50 (SK-OV-3) | GI50 (MOLT-4) | GI50 (SF-268) | GI50 (HL-60) | GI50 (UO-31) | GI50 (NCI-H23) | GI50 (K562) | GI50 (IGROV-1) | GI50 (LOX IMVI) | GI50 (CAKI-1) | GI50 (RXF 393) | GI50 (SK-MEL-5) | GI50 (SR) | GI50 (HCT-116) | GI50 (HCT-15) [µM] | GI50 (UACC-62)
1 | CCOc1ccccc1NC(=O)C1=C(C)NC(C)=C(C(=O)Nc2ccccc2OCC)C1c1cccc([N+](=O)[O-])c1 | > 100 µM (inactive) | 11.8 µM (inactive) | > 100 µM (inactive) | 30.5 µM (inactive) | 28.2 µM (inactive) | > 100 µM (inactive) | 28.2 µM (inactive) | > 100 µM (inactive) | 66.8 µM (inactive) | 5.9 µM (inactive) | 47.4 µM (inactive) | 32.1 µM (inactive) |  |  |  | 
2 | CC(=O)Oc1ccc(Nn2c3ccccc3c3ccccc32)c(C)c1 | 40.9 µM (inactive) | 23.4 µM (inactive) | 45.9 µM (inactive) | 22.3 µM (inactive) | 39.1 µM (inactive) | 38.2 µM (inactive) | 32.1 µM (inactive) | 23.6 µM (inactive) | > 10 µM (inactive) |  | 29.5 µM (inactive) | 39.2 µM (inactive) | 21.7 µM (inactive) | 35.7 µM (inactive) | 24.6 | 51.5 µM (inactive)
3 | Clc1ccc(OCc2nnc3n2N=C(c2ccccc2)CS3)cc1 | 20.7 µM (inactive) | 9.68 µM (inactive) | 14.3 µM (inactive) | 13 µM (inactive) | 5.42 µM (inactive) | 12.2 µM (inactive) | 12.7 µM (inactive) | 4.47 µM (inactive) | 17 µM (inactive) | 24.9 µM (inactive) |  |  | 6.5 µM (inactive) | 11.2 µM (inactive) | 13.8 | 11.1 µM (inactive)
4 | CC(C)N(C(=O)C12C3C4C1C1C2C3C41I)C(C)C (centres undefined) | > 100 µM (inactive) | > 100 µM (inactive) | > 100 µM (inactive) | > 100 µM (inactive) | > 100 µM (inactive) | > 100 µM (inactive) | > 100 µM (inactive) | > 100 µM (inactive) |  | > 100 µM (inactive) |  | > 100 µM (inactive) | > 100 µM (inactive) | > 100 µM (inactive) |  | > 100 µM (inactive)
5 | CN1C(=O)C(=CN(C)c2ccccc2)C(=O)N(C)C1=O |  | > 100 µM (inactive) |  | 51.1 µM (inactive) | > 100 µM (inactive) |  | > 100 µM (inactive) | 56.5 µM (inactive) | > 100 µM (inactive) | 30.1 µM (inactive) | 69 µM (inactive) | > 100 µM (inactive) | 37.2 µM (inactive) | > 100 µM (inactive) | > 100 | 91.6 µM (inactive)
6 | O=C1C2C(C(=O)N1c1ccccc1)C1([N+](=O)[O-])C=C3c4ccccc4N(C(=O)c4ccccc4)C32C2C(=O)N(c3ccccc3)C(=O)C21 (centres undefined) | > 100 µM (inactive) | > 100 µM (inactive) | > 100 µM (inactive) | > 100 µM (inactive) | > 100 µM (inactive) | > 100 µM (inactive) | > 100 µM (inactive) | > 100 µM (inactive) | > 100 µM (inactive) | > 100 µM (inactive) |  |  | > 100 µM (inactive) | > 100 µM (inactive) | > 100 | > 100 µM (inactive)
7 | CC1=C(C(=O)NCc2ccccc2)C(c2ccc(Cl)c(Cl)c2)C(C(=O)NCc2ccccc2)=C(C)N1 |  | > 100 µM (inactive) | > 100 µM (inactive) | > 100 µM (inactive) | > 100 µM (inactive) | > 100 µM (inactive) | > 100 µM (inactive) | > 100 µM (inactive) | > 100 µM (inactive) |  | > 100 µM (inactive) | > 100 µM (inactive) | > 100 µM (inactive) | > 100 µM (inactive) | > 100 | > 100 µM (inactive)
8 | COC(=O)c1c[nH]c2nc(N3CCOCC3)nn2c1=O | > 100 µM (inactive) | > 100 µM (inactive) | > 100 µM (inactive) | > 100 µM (inactive) | > 100 µM (inactive) | > 100 µM (inactive) | > 100 µM (inactive) | 1.84 µM (inactive) | > 100 µM (inactive) | > 100 µM (inactive) | > 100 µM (inactive) | > 100 µM (inactive) | > 100 µM (inactive) | > 100 µM (inactive) | > 100 | > 100 µM (inactive)
9 | CC1(Cl)CC(C)(/C=C/Cl)C(Cl)CC1Cl (centres undefined) | 38.4 µM (inactive) | 14.3 µM (inactive) | 15.9 µM (inactive) |  | 16.1 µM (inactive) | 19.8 µM (inactive) | 9.79 µM (inactive) | 12.9 µM (inactive) |  | 16.1 µM (inactive) | 14.8 µM (inactive) | 14 µM (inactive) | 18.2 µM (inactive) | 10.1 µM (inactive) | 14.1 | 16.1 µM (inactive)
10 | CC1CCCC(C(O)CC2CC(=O)N(c3ccccc3)C(=O)C2)C1=O (centres undefined) | > 100 µM (inactive) | > 100 µM (inactive) | > 100 µM (inactive) | > 100 µM (inactive) | > 100 µM (inactive) | > 100 µM (inactive) | > 100 µM (inactive) | > 100 µM (inactive) | > 100 µM (inactive) | > 100 µM (inactive) | > 100 µM (inactive) |  | > 100 µM (inactive) | > 100 µM (inactive) |  | > 100 µM (inactive)
11 | CC(=O)CC(=O)N(CCN(C(=O)CC(C)=O)c1ccccc1)c1ccccc1 | > 100 µM (inactive) | > 100 µM (inactive) | > 100 µM (inactive) | 43.4 µM (inactive) | > 100 µM (inactive) | > 100 µM (inactive) | > 100 µM (inactive) | > 100 µM (inactive) | > 100 µM (inactive) | > 100 µM (inactive) | > 100 µM (inactive) | > 100 µM (inactive) |  | > 100 µM (inactive) |  | > 100 µM (inactive)
12 | O=C(c1ccccc1)C1N=NN(Cc2ccccc2[N+](=O)[O-])C1C(=O)c1ccccc1 (centres undefined) | 87.3 µM (inactive) | > 100 µM (inactive) | > 100 µM (inactive) | > 100 µM (inactive) | > 100 µM (inactive) | > 100 µM (inactive) | > 100 µM (inactive) | > 100 µM (inactive) | > 100 µM (inactive) | > 100 µM (inactive) | > 100 µM (inactive) | > 100 µM (inactive) | > 100 µM (inactive) | > 100 µM (inactive) | > 100 | > 100 µM (inactive)
13 | Cc1cccc(C)c1NC(=O)CCC(=O)/N=C(\N)NC#N | > 100 µM (inactive) | > 100 µM (inactive) | > 100 µM (inactive) | > 100 µM (inactive) | > 100 µM (inactive) | > 100 µM (inactive) | > 100 µM (inactive) | > 100 µM (inactive) | > 100 µM (inactive) | > 100 µM (inactive) | > 100 µM (inactive) | > 100 µM (inactive) | > 100 µM (inactive) | > 100 µM (inactive) | > 100 | > 100 µM (inactive)
14 | COc1ccc(C2ON(c3cccc(C)n3)CC=C2C)cc1 (centres undefined) | 97.9 µM (inactive) | 36.4 µM (inactive) | 60.1 µM (inactive) | 18 µM (inactive) | 45.7 µM (inactive) | 27.6 µM (inactive) | 38.8 µM (inactive) | 60.8 µM (inactive) | 41.5 µM (inactive) | 74.1 µM (inactive) | 29.4 µM (inactive) | 17.6 µM (inactive) | 30.1 µM (inactive) |  | 26.9 | 40.7 µM (inactive)
15 | CC1(O)CC2C(CC1SC1CC3C(CC1(C)O)C3(C)C)C2(C)C (centres undefined) | 54.7 µM (inactive) | 43.1 µM (inactive) | > 100 µM (inactive) | 22.9 µM (inactive) | 24 µM (inactive) | 41.7 µM (inactive) | 30.5 µM (inactive) | 45 µM (inactive) |  |  |  | 11.6 µM (inactive) |  | 44.8 µM (inactive) | 39.1 | 
16 | CC1=C(CC2C(=O)N(c3ccccc3)S(=O)(=O)NC2C)C(=O)N(c2ccccc2)S(=O)(=O)N1C (centres undefined) | > 100 µM (inactive) | > 100 µM (inactive) | > 100 µM (inactive) |  | > 100 µM (inactive) | > 100 µM (inactive) | > 100 µM (inactive) | > 100 µM (inactive) | > 100 µM (inactive) | > 100 µM (inactive) |  | > 100 µM (inactive) | > 100 µM (inactive) | > 100 µM (inactive) | > 100 | > 100 µM (inactive)
17 | COc1cc2c(cc1OC)C1c3ccccc3C(C#N)(C2)N(C(=O)c2ccccc2)C1O (centres undefined) | 77.3 µM (inactive) | 35.2 µM (inactive) | > 100 µM (inactive) | 42.3 µM (inactive) | 61.8 µM (inactive) | 84.5 µM (inactive) | 36.5 µM (inactive) | 47.5 µM (inactive) | > 100 µM (inactive) |  | 85.5 µM (inactive) | 30.7 µM (inactive) | 79.8 µM (inactive) | > 100 µM (inactive) | 55.8 | 43.7 µM (inactive)
18 | Fc1cccc(/C=N/C23CC4CC(CC(C4)C2)C3)c1 | > 100 µM (inactive) | > 100 µM (inactive) | > 100 µM (inactive) | > 100 µM (inactive) | > 100 µM (inactive) | > 100 µM (inactive) | > 100 µM (inactive) | > 100 µM (inactive) | > 100 µM (inactive) | > 100 µM (inactive) | > 100 µM (inactive) |  |  | > 100 µM (inactive) | > 100 | > 100 µM (inactive)
19 | CCN(c1n[n+]2c(-c3ccccc3)csc2s1)c1n[n+]2c(-c3ccccc3)csc2s1 | > 100 µM (inactive) | 37.5 µM (inactive) | > 100 µM (inactive) | 22.3 µM (inactive) | > 100 µM (inactive) | 44.6 µM (inactive) | 17.5 µM (inactive) | > 100 µM (inactive) | 57.9 µM (inactive) |  | 65.9 µM (inactive) | 38 µM (inactive) | 20.5 µM (inactive) | 19.3 µM (inactive) | > 100 | > 100 µM (inactive)
